According to patent US11014920B2, “Factor XIIa inhibitors” (Merck Sharp & Dohme Corp., priority 2016, dated 2021):

Target: purified human Factor XIIa (Homo sapiens (Human), UniProt P00748)
Test: Factor XIIa assay
Format: biochemical
Settings: substrate n-Acetyl-Lys-Pro-Arg-AFC 100 μM, pH 7.4, read-out: FXIIa IC50
Experimental: “FXIIa IC50(nm)” is Human Factor XIIa IC50 (nm).
The effectiveness of a compound of the present invention as an inhibitor of Coagulation Factor XIIa can be determined using a relevant purified serine protease, and an appropriate synthetic substrate. The rate of hydrolysis of the chromogenic or fluorogenic substrate by the relevant serine protease was measured both in the absence and presence of compounds of the present invention. Assays were conducted at room temperature or at 37° C. […] A decrease in the rate of fluorescence change in the presence of inhibitor is indicative of enzyme inhibition. Such methods are known to one skilled in the art. The results of this assay are expressed as the IC50, the inhibitor concentration causing a 50% decrease in Factor XIIa protease activity.
Factor XIIa activity determinations were made in 50 mM HEPES buffer containing 150 mM NaCl, 5 mM CaCl2, and 0.1% PEG 8000 (polyethylene glycol; JT Baker or Fisher Scientific) at pH 7.4. Determinations were made using purified human Factor XIIa at a final concentration of […] (Sekisui Diagnostics) and the synthetic substrate, n-Acetyl-Lys-Pro-Arg-AFC, TFA salt (Sigma # C6608) at a concentration of 100 μM.
Times required to achieve equilibration between enzyme and inhibitor were determined in control experiments. Initial velocities of product formation in the absence (Vo) or presence of inhibitor (Vi) were measured.

Sequence of purified human Factor XIIa (P00748 373-615): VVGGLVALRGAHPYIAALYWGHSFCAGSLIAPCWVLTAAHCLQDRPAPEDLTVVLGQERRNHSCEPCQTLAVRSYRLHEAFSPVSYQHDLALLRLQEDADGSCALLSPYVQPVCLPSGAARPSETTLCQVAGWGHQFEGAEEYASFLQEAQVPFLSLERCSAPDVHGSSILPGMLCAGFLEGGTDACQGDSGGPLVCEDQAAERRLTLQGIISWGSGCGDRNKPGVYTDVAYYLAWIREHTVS
Sequence of purified human Factor XIIa (P00748 20-372 partner): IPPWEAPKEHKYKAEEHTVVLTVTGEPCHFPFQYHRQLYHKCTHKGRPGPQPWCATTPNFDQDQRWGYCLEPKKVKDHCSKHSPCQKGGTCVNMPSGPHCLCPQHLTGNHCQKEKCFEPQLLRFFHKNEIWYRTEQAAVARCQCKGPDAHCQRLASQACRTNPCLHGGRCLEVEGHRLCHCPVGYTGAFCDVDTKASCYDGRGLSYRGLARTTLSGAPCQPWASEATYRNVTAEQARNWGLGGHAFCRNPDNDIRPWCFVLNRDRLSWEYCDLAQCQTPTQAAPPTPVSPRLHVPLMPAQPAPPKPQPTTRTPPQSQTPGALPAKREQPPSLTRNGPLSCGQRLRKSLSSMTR

| SMILES | IC50 |
| --- | --- |
| Cc1cnc(C(=O)N[C@@H]2CCN(C(=O)[C@@H](CC3CCCCC3)NC3CCCCC3)C[C@@H]2C(=O)NCc2ccc3[nH]cc(Cl)c3c2)s1 [Compound 1, (3S,4R)-N-[(3-chloro-1H-indol-5-yl)methyl]-1-(N,3-dicyclohexyl-D-alanyl)-4-{[(5-methyl-1,3-thiazol-2-yl)carbonyl]amino}pi-peridine-3-carboxamide] | 49.2 nM |
| Cc1cnc(C(=O)NC2CCN(C(=O)[C@@H](CC3CCCCC3)NC3CCCCC3)CC2C(=O)NCc2ccc(CN)cc2)s1 (stereo partly drawn) [Compound 2, N-[4-(aminomethyl)benzyl]-1-(N,3-dicyclohexyl-D-alanyl)-4-{[(5-methyl-1,3-thiazol-2-yl)carbonyl]amino}pi-peridine-3-carboxamide] | 73.3 nM |
| Cc1cnc(C(=O)N[C@@H]2CCN(C(=O)[C@@H](CCCCN)NC3CCCCC3)C[C@@H]2C(=O)NCc2cccs2)s1 [Compound 3, (3S,4R)-1-(N~2~- cyclohexyl-D-lysyl)-4-{[(5-methyl-1,3-thiazol-2-yl)carbonyl]amino}-N-(thiophen-2-ylmethyl)piperidine-3-carboxamide] | 109 nM |
| Cc1cnc(C(=O)N[C@@H]2CCN(C(=O)[C@@H](CC3CCCCC3)NC3CCCCC3)C[C@@H]2C(=O)NCc2ccnc(N)c2)s1 [Compound 4, (3S,4R)-N-[(2-aminopyridin-4-yl)methyl]-1-(N,3-dicyclohexyl-D-alanyl)-4-{[(5-methyl-1,3-thiazol-2-yl)carbonyl]amino}pi-peridine-3-carboxamide] | 65.1 nM |
| CN(C)CCCC[C@H](C(=O)N1CC[C@@H](NC(=O)c2ccc(F)c(F)c2)[C@@H](C(=O)NCc2cccs2)C1)N(C)C1CCCCC1 [Compound 5, (3S,4R)-1-(N~2~- cyclohexyl-N~2~,N~6~,N~6~- trimethyl-D-lysyl)-4-{[(3,4-difluoro-phenyl)carbonyl]amino}-N-(thiophen-2-ylmethyl)piperidine-3-carboxamide] | 71.6 nM |
| CN(C)CCCC[C@H](C(=O)N1CC[C@@H](NC(=O)c2ccc(F)cc2)[C@@H](C(=O)NCc2cccs2)C1)N(C)C1CCCCC1 [Compound 6, (3S,4R)-1-(N~2~- cyclohexyl-N~2~,N~6~,N~6~- trimethyl-D-lysyl)-4-{[(4-fluoro-phenyl)carbonyl]amino}-N-(thiophen-2-ylmethyl)piperidine-3-carboxamide] | 98.3 nM |
| CN(C)CCCC[C@H](C(=O)N1CC[C@@H](NC(=O)c2ccc(F)cc2F)[C@@H](C(=O)NCc2cccs2)C1)N(C)C1CCCCC1 [Compound 7, (3S,4R)-1-(N~2~- cyclohexyl-N~2~,N~6~,N~6~- trimethyl-D-lysyl)-4-{[(2,4-difluoro-phenyl)carbonyl]amino}-N-(thiophen-2-ylmethyl)piperidine-3-carboxamide] | 18.7 nM |
| CN(C)CCCC[C@H](C(=O)N1CC[C@@H](NC(=O)c2ccccc2)[C@@H](C(=O)NCc2cccs2)C1)N(C)C1CCCCC1 [Compound 8, (3S,4R)-1-(N~2~- cyclohexyl-N~2~,N~6~,N~6~- trimethyl-D-lysyl)-4-[(phenylcarbonyl)amino]-N-(thiophen-2-ylmethyl)piperidine-3-carboxamide] | 60.2 nM |
| CN(C)CCCC[C@H](C(=O)N1CC[C@@H](NC(=O)c2ccc(Cl)cc2)[C@@H](C(=O)NCc2cccs2)C1)N(C)C1CCCCC1 [Compound 9, (3S,4R)-4-{[(4-chloro-phenyl)carbonyl]amino}-1-(N~2~- cyclohexyl-N~2~,N~6~,N~6~- trimethyl-D-lysyl)-N-(thiophen-2-ylmethyl)piperidine-3-carboxamide] | 11.5 nM |
| CN(C)CCCC[C@H](C(=O)N1CC[C@@H](NC(=O)c2cc(F)c(F)cc2F)[C@@H](C(=O)NCc2cccs2)C1)N(C)C1CCCCC1 [Compound 10, (3S,4R)-1-(N~2~- cyclohexyl-N~2~,N~6~,N~6~- trimethyl-D-lysyl)-N-(thiophen-2-ylmethyl)-4-{[(2,4,5-trifluoro-phenyl)carbonyl]amino}pi-peridine-3-carboxamide] | 29.2 nM |
| NCCCC[C@@H](NC1CCCCC1)C(=O)N1CC[C@@H](NC(=O)N2CCC3(CC2)CC3)[C@@H](C(=O)NCc2cccs2)C1 [Compound 11, N-{(3S,4R)-1-(N~2~- cyclohexyl-D-lysyl)-3-[(thiophen-2-ylmethyl)carbamoyl]pi-peridin-4-yl}-6-azaspiro[2.5]octane-6-carboxamide] | 71.6 nM |
| NCc1ccc(CNC(=O)[C@H]2CN(C(=O)[C@@H](CC3CC3)NC3CCCCC3)CC[C@H]2NC(=O)N2CCC3(CC2)CC3)cc1 [Compound 12, N-[(3S,4R)-3-{[4-(amino-methyl)benzyl]carbamoyl}-1-(N-cyclohexyl-3-cyclopropyl-D-alanyl)piperidin-4-yl]-6-azaspiro[2.5]octane-6-carboxamide] | 41.7 nM |
| NCCCC[C@@H](NC1CCCCC1)C(=O)N1CC[C@@H](NC(=O)N2CCC3(CC2)CC3)[C@@H](C(=O)NCc2ccccc2)C1 [Compound 13, N-[(3S,4R)-3-(benzylcarbamoyl)-1-(N~2~-cyclohexyl-D-lysyl)piperidin-4-yl]-6-azaspiro[2.5]octane-6-carboxamide] | 98.3 nM |
| NCCCC[C@@H](NC1CCCCC1)C(=O)N1CC[C@@H](NC(=O)N2CCC3(CC2)CC3)[C@@H](C(=O)NCc2ccc(CN)cc2)C1 [Compound 14, N-[(3S,4R)-3-{[4-(amino-methyl)benzyl]carbamoyl}-1-(N~2~-cyclohexyl-D-lysyl)piperidin-4-yl]-6-azaspiro[2.5]octane-6-carboxamide] | 18.7 nM |
| Cc1csc(CNC(=O)[C@H]2CN(C(=O)[C@@H](CCCCN)NC3CCCCC3)CC[C@H]2NC(=O)N2CCC3(CC2)CC3)c1 [Compound 15, N-[(3S,4R)-1-(N~2~- cyclohexyl-D-lysyl)-3-{[(4-methylthiophen-2-yl)methyl]carbamoyl}pi-peridin-4-yl]-6-azaspiro[2.5]octane-6-carboxamide] | 60.2 nM |
| O=C(NCc1cccs1)[C@H]1CN(C(=O)[C@@H](CCCCN2CCCS2(=O)=O)NC2CCCCC2)CC[C@H]1NC(=O)N1CCC2(CC1)CC2 [Compound 17, N-{(3S,4R)-1-[N-cyclohexyl-6-(1,1-dioxidoisothiazolidin-2-yl)-D-norleucyl]-3-[(thiophen-2-ylmethyl)carbamoyl]pi-peridin-4-yl}-6-azaspiro[2.5]octane-6-carboxamide] | 11.5 nM |
| CS(=O)(=O)NCCCC[C@@H](NC1CCC2(CC1)CCN(Cc1ccccc1)C2)C(=O)N1CC[C@@H](NC(=O)N2CCC3(CC2)CC3)[C@@H](C(=O)NCc2cccs2)C1 (stereo partly drawn) [Compound 18, N-{(3S,4R)-1-[N~2~- (2-benzyl-2-azaspiro[4.5]dec-8-yl)-N~6~-(methylsulfonyl)-D-lysyl]-3-[(thiophen-2-ylmethyl)carbamoyl]pi-peridin-4-yl}-6-azaspiro[2.5]octane-6-carboxamide] | 29.2 nM |
| O=C(NCc1cccs1)[C@H]1CN(C(=O)[C@@H](CCCCNS(=O)(=O)C2CC2)NC2CCCCC2)CC[C@H]1NC(=O)N1CCC2(CC1)CC2 [Compound 19, N-{(3S,4R)-1-[N~2~- cyclohexyl-N~6~- (cyclopropylsulfonyl)-D-lysyl]-3-[(thiophen-2-ylmethyl)carbamoyl]pi-peridin-4-yl}-6-azaspiro[2.5]octane-6-carboxamide] | 43.1 nM |
| O=C(NCc1cccs1)[C@H]1CN(C(=O)[C@@H](CC2CCNCC2)NC2CCCCC2)CC[C@H]1NC(=O)N1CCC2(CC1)CC2 [Compound 20, N-{(3S,4R)-1-(N-cyclohexyl-3-piperidin-4-yl-D-alanyl)-3-[(thiophen-2-ylmethyl)carbamoyl]pi-peridin-4-yl}-6-azaspiro[2.5]octane-6-carboxamide] | 47.2 nM |
| CCS(=O)(=O)NCCCC[C@@H](NC1CCCCC1)C(=O)N1CC[C@@H](NC(=O)N2CCC3(CC2)CC3)[C@@H](C(=O)NCc2cccs2)C1 [Compound 21, N-{(3S,4R)-1-[N~2~- cyclohexyl-N~6~- (ethylsulfonyl)-D-lysyl]-3-[(thiophen-2-ylmethyl)carbamoyl]pi-peridin-4-yl}-6-azaspiro[2.5]octane-6-carboxamide] | 51.2 nM |
| O=C(NCc1cccs1)[C@H]1CN(C(=O)[C@@H](CCCCNCC(F)(F)F)NC2CCCCC2)CC[C@H]1NC(=O)N1CCC2(CC1)CC2 [Compound 22, N-{(3S,4R)-1-[N~2~- cyclohexyl-N~6~- (2,2,2-trifluoroethyl)-D-lysyl]-3-[(thiophen-2-ylmethyl)carbamoyl]pi-peridin-4-yl}-6-azaspiro[2.5]octane-6-carboxamide] | 46.5 nM |
| CS(=O)(=O)NCCCC[C@@H](NC1CCCCC1)C(=O)N1CC[C@@H](NC(=O)N2CCC3(CC2)CC3)[C@@H](C(=O)NCc2cccs2)C1 [Compound 23, N-{(3S,4R)-1-[N~2~- cyclohexyl-N~6~- (methylsulfonyl)-D-lysyl]-3-[(thiophen-2-ylmethyl)carbamoyl]pi-peridin-4-yl}-6-azaspiro[2.5]octane-6-carboxamide] | 52.4 nM |
| CC(=O)NCCCC[C@@H](NC1CCCCC1)C(=O)N1CC[C@@H](NC(=O)N2CCC3(CC2)CC3)[C@@H](C(=O)NCc2cccs2)C1 [Compound 24, N-{(3S,4R)-1-(N~6~- acetyl-N~2~- cyclohexyl-D-lysyl)-3-[(thiophen-2-ylmethyl)carbamoyl]pi-peridin-4-yl}-6-azaspiro[2.5]octane-6-carboxamide] | 108 nM |
